Experiments:
Format in all cases: cell-based
[1] = target: T1, human KCNQ2 and KCNQ3 subunits (KCNQ2/3 channels) (Homo sapiens, UniProt O43525+O43526); assay: KCNQ2/3 thallium influx FLIPR assay (BTC-AM dye); settings: for EC50: HEK293 cells stably expressing human KCNQ2 and KCNQ3, Tl+ influx; for Emax: maximum response relative to 10 μM retigabine (=100%), read-out: KCNQ2/3 Max. %
T1 construct: expressed in transfected cells; host or cells: HEK293
Experimental: The following example describes the assay that may be used to identify compounds that activate KCNQ2/3 channels.
HEK293 cells stably expressing human KCNQ2 and KCNQ3 subunits were seeded in 96-well, black-walled, clear-bottomed, poly-D-lysine coated plates (BD Biosciences, Bedford, Mass.) at a density of 1×10^5 cells per well 24 hours before the assay. On the assay day, BTC-AM dye (Invitrogen, Carlsbad, Calif.) was loaded into the cells by replacing the cell culture medium with 55 μL/well of 3 μg/ml dye in Dulbecco's Phosphate Buffered Saline (DPBS) (Invitrogen). Dye loading was allowed to proceed for 2 hours at room temperature and then cells were washed twice with 50 μL/well of assay buffer (in mM: 10 HEPES pH 7.3, 5 glucose, 140 Na-gluconate, 2.5 K-gluconate, 3.6 Ca-gluconate, 2 MgSO4, 0.1 Ouabain) to remove unloaded dye. Cells were incubated in 50 μL of assay buffer before loading onto a FLIPR system (Molecular Devices, Sunnyvale, Calif.). Various concentrations of compounds to be assayed were added to the cells in 50 μL of assay buffer and incubated for 4 minutes. The fluorescence signal was initiated by adding 100 μL of assay buffer containing 6 mM TlNO3 and 10 mM K2SO4. Fluors were excited using the 488-nm line of an argon laser and emission was filtered using a 540±30 nm bandpass filter. Fluorescent signals were recorded for 3 minutes. Sums of the responses over basal responses were plotted versus concentrations of test compounds to obtain an EC50 value and the points fit with a nonlinear regression curve using GraphPad Prism software (GraphPad Software Inc., San Diego, Calif.). EC50 values were calculated from the resulting sigmoidal dose-response curves. The maximum response for each test compound was determined relative to the response produced by 10 μM retigabine. The maximum response of retigabine at 10 μM was set at 100%.

human KCNQ4 = target: T2, human KCNQ4 (Homo sapiens, UniProt P56696); assay: KCNQ4 thallium influx FLIPR TETRA assay; settings: for EC50: HEK293 cells stably expressing human KCNQ4, Tl+ influx; for Emax: maximum response relative to 10 μM retigabine (=100%), read-out: KCNQ4 Max. %
T2 construct: expressed in transfected cells; host or cells: HEK293
Experimental: (§1) The following example describes the assay that may be used to identify compounds that activate KCNQ4 or KCNQ5 channels.
(§2) The assays were performed using a FLIPR^TETRA (Molecular Devices, Sunnyvale, Calif.) in 384-well format. HEK293 cells stably expressing human KCNQ4 or KCNQ5 were seeded in 384-well, black-walled, clear-bottomed, poly-D-lysine coated plates (Greiner Bio-One, Germany) at a density of 1.5×10^4 cells per well, 24 hours before the assay. On the assay day, BTC-AM dye was loaded into the cells by replacing the cell culture medium with 30 μL/well of 2.8 μM dye in DPBS. Dye loading was allowed to proceed for 2 hours at room temperature and then cells were washed once in 30 μL/well of assay buffer (in mM: 10 HEPES pH 7.3, 5 glucose, 140 Na-gluconate, 2.5 K-gluconate, 3.6 Ca-gluconate, 2 MgSO4, 0.1 Ouabain) to remove unloaded dye. Cells were incubated in 30 μL of assay buffer before loading onto a FLIPR^TETRA system. Compounds to be assayed were added to the cells as 4× of final concentration in 15 μL of assay buffer and incubated for 4 minutes at room temperature. The influx signal was initiated by adding 15 μL of assay buffer containing 4.2 mM TlNO3 and 7 mM K2SO4. Tl^+ influx signals were recorded for 3 minutes. Tl^+ influx signal was quantified as light unit changes after Tl^+ addition using the “SUM” statistic from the FLIPR^TETRA software. Sums of the responses over basal responses were plotted versus concentrations of test compounds to obtain an EC50 value and the points fit with a nonlinear regression curve using GraphPad Prism software (GraphPad Software Inc., San Diego, Calif.). EC50 values were calculated from the resulting sigmoidal dose-response curves. The maximum response for each test compound was determined relative to the response produced by 10 μM retigabine. The maximum response of retigabine at 10 μM was set at 100%.

human KCNQ5 = target: T3, human KCNQ5 (Homo sapiens, UniProt Q9NR82); assay: KCNQ5 thallium influx FLIPR TETRA assay; settings: for EC50: HEK293 cells stably expressing human KCNQ5, Tl+ influx; for Emax: maximum response relative to 10 μM retigabine (=100%), read-out: KCNQ5 Max. %
T3 construct: expressed in transfected cells; host or cells: HEK293
Experimental: as §1, §2

EC50 [1] [µM] | Emax [1] [%] | EC50 (human KCNQ4) [µM] | Emax (human KCNQ4) [%] | EC50 (human KCNQ5) [µM] | Emax (human KCNQ5) [%] | Compound
1 to 10 | 97 | > 30 | 3 | > 30 | 14 | Cc1nc2ccccc2c(=O)n1NC(=O)C[C@@H]1CC[C@H]2C[C@@H]1C2(C)C [Example 17, 2-[(1S,2S,5S)-6,6-dimethylbicyclo[3.1.1]hept-2-yl]-N-(2-methyl-4-oxoquinazolin-3(4H)-yl)acetamide]
> 30 | 3 | > 30 | 1 | > 30 | 12 | CC1(C)[C@H]2CC[C@@H](CC(=O)Nn3c(C4CC4)nc4cc(C(F)(F)F)ccc4c3=O)[C@@H]1C2 [Example 4, N-[2-cyclopropyl-4-oxo-7-(trifluoromethyl)quinazolin-3(4H)-yl]-2-[(1S,2S,5S)-6,6-dimethylbicyclo[3.1.1]hept-2-yl]acetamide]
0.5 to 1 | 132 | > 30 | 57 | > 30 | 52 | CC(C)c1nc2ccccc2c(=O)n1NC(=O)COC[C@@H]1CC[C@H]2C[C@@H]1C2(C)C [Example 8, 2-[(1S,2R,5S)-(6,6-dimethylbicyclo[3.1.1]hept-2-yl)methoxy]-N-[4-oxo-2-(propan-2-yl)quinazolin-3(4H)-yl]acetamide]
< 0.1 | 105 | > 30 | 27 | > 30 | -10 | CC1(C)[C@H]2CC[C@@H](CC(=O)Nn3c(CC(F)(F)F)nc4ccccc4c3=O)[C@@H]1C2 [Example 14, 2-[(1S,2S,5S)-6,6-dimethylbicyclo[3.1.1]hept-2-yl]-N-[4-oxo-2-(2,2,2-trifluoroethyl)quinazolin-3(4H)-yl]acetamide]
< 0.1 | 25 | > 30 | -43 | > 30 | 88 | CC(C)c1nc2ccccc2c(=O)n1NC(=O)C[C@@H]1[C@H](F)C[C@H]2C[C@@H]1C2(C)C [Example 24, 2-[(1S,2S,3R,5R)-3-fluoro-6,6-dimethylbicyclo[3.1.1]hept-2-yl]-N-[4-oxo-2-(propan-2-yl)quinazolin-3(4H)-yl]acetamide]
0.1 to 0.5 | 111 | 1 to 10 | 46 | > 30 | 10 | CC(C)c1nc2sccc2c(=O)n1NC(=O)C[C@@H]1CC[C@H]2C[C@@H]1C2(C)C [Example 20, 2-[(1S,2S,5S)-6,6-dimethylbicyclo[3.1.1]hept-2-yl]-N-[4-oxo-2-(propan-2-yl)thieno[2,3-d]pyrimidin-3(4H)-yl]acetamide]
0.1 to 0.5 | 93 | > 30 | -23 | > 30 | 15 | CC(C)c1nc2ccccc2c(=O)n1NC(=O)C[C@@H]1C[C@@H]2C[C@H](C1)C2(C)C [Example 25, 2-[(1R,3s,5S)-6,6-dimethylbicyclo[3.1.1]hept-3-yl]-N-[4-oxo-2-(propan-2-yl)quinazolin-3(4H)-yl]acetamide]
0.1 to 0.5 | 149 | > 30 | 41 | > 30 | 136 | CC(C)c1nc2ccccc2c(=O)n1NC(=O)CSC[C@@H]1CC[C@H]2C[C@@H]1C2(C)C [Example 12, 2-({[(1S,2R,5S)-6,6-dimethylbicyclo[3.1.1]hept-2-yl]methyl}sulfanyl)-N-[4-oxo-2-(propan-2-yl)quinazolin-3(4H)-yl]acetamide]
0.1 to 0.5 | 49 | > 30 | 23 | > 30 | 49 | CC(SC[C@@H]1CC[C@H]2C[C@@H]1C2(C)C)C(=O)Nn1c(C(C)C)nc2ccccc2c1=O (stereo partly drawn) [Example 9, 2-({[(1S,2R,5S)-6,6-dimethylbicyclo[3.1.1]hept-2-yl]methyl}sulfanyl)-N-[4-oxo-2-(propan-2-yl)quinazolin-3(4H)-yl]propanamide]

The next lines start with the compound.

Compound | EC50 [1] [µM] | Emax [1] [%] | EC50 (human KCNQ4) [µM] | Emax (human KCNQ4) [%] | EC50 (human KCNQ5) [µM] | Emax (human KCNQ5) [%]
CC(C)c1nc2ccccc2c(=O)n1NC(=O)C[C@H]1C[C@H]2C[C@@H](C1F)C2(C)C (stereo partly drawn) [Example 23, 2-[(1R,3R,5S)-2-fluoro-6,6-dimethylbicyclo[3.1.1]hept-3-yl]-N-[4-oxo-2-(propan-2-yl)quinazolin-3(4H)-yl]acetamide] | 0.1 to 0.5 | 155 | 0.1 to 0.5 | 229 | 0.1 to 0.5 | 633
CC(C)c1nc2ccccc2c(=O)n1NC(=O)CCSC[C@@H]1CC[C@H]2C[C@@H]1C2(C)C [Example 11, 3-({[(1S,2R,5S)-6,6-dimethylbicyclo[3.1.1]hept-2-yl]methyl}sulfanyl)-N-[4-oxo-2-(propan-2-yl)quinazolin-3(4H)-yl]propanamide] | 0.1 to 0.5 | 123 | 1 to 10 | 293 | > 30 | 714
CC(C)c1nc2ccc(Cl)cc2c(=O)n1NC(=O)C[C@@H]1CC[C@H]2C[C@@H]1C2(C)C [Example 18, N-[6-chloro-4-oxo-2-(propan-2-yl)quinazolin-3(4H)-yl]-2-[(1S,2S,5S)-6,6-dimethylbicyclo[3.1.1]hept-2-yl]acetamide] | > 30 | 8 | > 30 | 4 | > 30 | 19
CC1(C)[C@H]2CC[C@@H](CC(=O)Nn3c(C4CC4)nc4cc(F)ccc4c3=O)[C@@H]1C2 [Example 3, N-(2-cyclopropyl-7-fluoro-4-oxoquinazolin-3(4H)-yl)-2-[(1S,2S,5S)-6,6-dimethylbicyclo[3.1.1]hept-2-yl]acetamide] | < 0.1 | 99 | > 30 | -2 | > 30 | 36
CC1(C)[C@H]2CC[C@@H](CC(=O)Nn3c(C(F)(F)F)nc4ccccc4c3=O)[C@@H]1C2 [Example 7, 2-[(1S,2S,5S)-6,6-dimethylbicyclo[3.1.1]hept-2-yl]-N-[4-oxo-2-(trifluoromethyl)quinazolin-3(4H)-yl]acetamide] | 0.1 to 0.5 | 58 | > 30 | 6 | > 30 | 52
CCN(CC)c1nc2ccccc2c(=O)n1NC(=O)C[C@@H]1CC[C@H]2C[C@@H]1C2(C)C [Example 19, N-[2-(diethylamino)-4-oxoquinazolin-3(4H)-yl]-2-[(1S,2S,5S)-6,6-dimethylbicyclo[3.1.1]hept-2-yl]acetamide] | 0.1 to 0.5 | 28 | > 30 | 8 | > 30 | 5
CC(C)c1nc2ccc(F)cc2c(=O)n1NC(=O)C[C@@H]1CC[C@H]2C[C@@H]1C2(C)C [Example 13, 2-[(1S,2S,5S)-6,6-dimethylbicyclo[3.1.1]hept-2-yl]-N-[6-fluoro-4-oxo-2-(propan-2-yl)quinazolin-3(4H)-yl]acetamide] | < 0.1 | 73 | > 30 | 8 | > 30 | 21
